In patent US20100160228A1, “METHOD FOR INHIBITING OR STIMULATING ANGIOGENESIS IN AN INDIVIDUAL” (VALTION TEKNILLINEN TUTKIMUSKESKUS, priority 2007, published 2010):

Tested on: HUVEC
Experiment: Fibrin-gel in vitro angiogenesis (capillary tube formation) assay
Assay type: cell-based, human
Settings: VEGF, 24 h, FIG. 5A
Method: FIG. 5. Controlled TCPTP activation inhibits VEGF-driven capillary formation, chemokinesis and chemotaxis. (A) HUVEC were cultured in fibrin gels and treated with or without VEGF and TAT peptides (200 nM). After 24 h the formation of capillary tubes was semiquantitatively scored. (B) HUVEC were plated on gelatin in the presence of the peptides (200 nM) or left untreated for 1 h. The cells were stimulated as indicated and migration of individual cells was tracked using time-lapse microscopy. Cumulative migration distance was plotted for randomly picked individual cells. (C) HUVEC were treated with 200 nM peptides and the transmigration assay was performed as in FIG. 3D. (D) HUVEC were transfected with siRNA against TCPTP or a control siRNA, and TCPTP expression was analysed with immunofluorescence. Equal exposures of TCPTP (green) and DAPI (blue) stainings are shown. 48 h post-transfection cells were subjected to transmigration assay as in […].
Tube formation assays. In the fibrin-gel in vitro angiogenesis assay (Chemicon) HUVEC were plated onto a fibrin-gel, and overlaid with a second fibrin-gel after an overnight culture. […] At the 24 h end-point the formation of cellular networks was quantified from three randomly-selected fields from each well. […] In the collagen overlay assay the number of closed polygons formed by capillary tubes was quantified.

## YGRKKRRQRRRWKLGFFKRPLKKKMEK (SEQ ID NO 3) [α1TAT]
  inhibition of capillary tube formation compared to control peptide treated cells: 40%
  inhibition of capillary tube formation compared to non-treated cells: 60%
